Assays:
[1] = tested on: human antibodies in human serum samples; assay: EIA reactivities of three human serum samples with deletion and alanine substitution analogues of SEQ ID NO: 1 (Table 6); assay type: binding; conditions: positive = more than 50% of the reactivity of the original peptide
Description: (§1) The EIAs used to identify which peptides interacted with human sera followed protocols known in the art. (See Zhang et al., J Gen Virol, 78:2735-2746 (1997), herein expressly incorporated by reference in its entirety). Briefly, microplates (Nunc, Denmark) were coated for 48 hours with synthetic peptides at a concentration of 10 μg/ml in 0.05M sodium carbonate buffer pH 9.6. After blocking for 2 hours at room temperature with phosphate buffered saline containing 1% bovine serum albumin, 2% goat serum and 0.05% Tween 20 (dilution buffer) the plates were incubated with human sera diluted 1:100 in dilution buffer. Bound human IgG was detected by incubation with anti-human IgG antibodies conjugated to alkaline phosphatase (Sigma Chemicals, St. Louis, Mo.). The plates were developed by the addition of […] (Sigma) and the optical densities were determined at 405 nm.
The reactivity to the TATTTTYAYPGTNRPPV (SEQ ID NO: 1) peptide was further characterized by mapping the reactivity of deletion and substitution peptide analogues.

[2] = tested on: human IgG antibodies in human serum samples; assay: EIA of human antibody reactivities to overlapping synthetic peptides of TTV ORF1 and ORF2 (Tables 2 and 3); assay type: binding; conditions: for optical density (OD) at 405 nm: serum diluted 1:100, OD over 0.500 considered positive; for optical density (OD) at 405 nm, EIA reactivity of human serum sample 1: serum sample 1, negative for TTV DNA by PCR; for optical density (OD) at 405 nm, EIA reactivity of human serum sample 1 / optical density (OD) at 405 nm, EIA reactivity of human serum sample 2 / optical density (OD) at 405 nm, EIA reactivity of human serum sample 3 / optical density (OD) at 405 nm, EIA reactivity of human serum sample 4 / optical density (OD) at 405 nm, EIA reactivity of human serum sample 5 / optical density (OD) at 405 nm, EIA reactivity of human serum sample 6 / optical density (OD) at 405 nm, EIA reactivity of human serum sample 7 / optical density (OD) at 405 nm, EIA reactivity of human serum sample 9 / optical density (OD) at 405 nm, EIA reactivity of human serum sample 11 / optical density (OD) at 405 nm, EIA reactivity of human serum sample 18 / optical density (OD) at 405 nm, EIA reactivity of human serum sample 36 / optical density (OD) at 405 nm, EIA reactivity of human serum sample 48 / optical density (OD) at 405 nm, EIA reactivity of human serum sample 98 / optical density (OD) at 405 nm, EIA reactivity of human serum sample 110 / optical density (OD) at 405 nm, EIA reactivity of human serum sample 155 / optical density (OD) at 405 nm, EIA reactivity of human serum sample 157: serum 1:100, peptide coated 10 μg/ml, OD over 0.500 positive; for optical density (OD) at 405 nm, EIA reactivity of human serum sample 2: serum sample 2, negative for TTV DNA by PCR; for optical density (OD) at 405 nm, EIA reactivity of human serum sample 3: serum sample 3, negative for TTV DNA by PCR; for optical density (OD) at 405 nm, EIA reactivity of human serum sample 4: serum sample 4, negative for TTV DNA by PCR; for optical density (OD) at 405 nm, EIA reactivity of human serum sample 5: serum sample 5, negative for TTV DNA by PCR; for optical density (OD) at 405 nm, EIA reactivity of human serum sample 6: serum sample 6, negative for TTV DNA by PCR; for optical density (OD) at 405 nm, EIA reactivity of human serum sample 7: serum sample 7, negative for TTV DNA by PCR; for optical density (OD) at 405 nm, EIA reactivity of human serum sample 9: serum sample 9, positive for TTV DNA by PCR; for optical density (OD) at 405 nm, EIA reactivity of human serum sample 11: serum sample 11, negative for TTV DNA by PCR; for optical density (OD) at 405 nm, EIA reactivity of human serum sample 18: serum sample 18, positive for TTV DNA by PCR; for optical density (OD) at 405 nm, EIA reactivity of human serum sample 36: serum sample 36, positive for TTV DNA by PCR; for optical density (OD) at 405 nm, EIA reactivity of human serum sample 48: serum sample 48, positive for TTV DNA by PCR; for optical density (OD) at 405 nm, EIA reactivity of human serum sample 98: serum sample 98, positive for TTV DNA by PCR; for optical density (OD) at 405 nm, EIA reactivity of human serum sample 110: serum sample 110, positive for TTV DNA by PCR; for optical density (OD) at 405 nm, EIA reactivity of human serum sample 155: serum sample 155, positive for TTV DNA by PCR; for optical density (OD) at 405 nm, EIA reactivity of human serum sample 157: serum sample 157, positive for TTV DNA by PCR
Source text: Overlapping peptides (18 amino acids in length containing an 8 amino acid overlap) corresponding to regions of the ORFI and ORF2 of TTV (TABLE 1; Genebank accession no AB008394) were produced by a multiple peptide synthesizer (Syro, Syntex, Germany) using standard Fmoc chemistry (Sallberg et al., Immunology Letters, 30:59 68 (1991), herein expressly incorporated by reference in its entirety).
as §1

[3] = human serum sample 1, negative for TTV DNA by PCR
[4] = human serum sample 2, negative for TTV DNA by PCR
[5] = human serum sample 3, negative for TTV DNA by PCR
[6] = human serum sample 4, negative for TTV DNA by PCR
[7] = human serum sample 5, negative for TTV DNA by PCR
[8] = human serum sample 6, negative for TTV DNA by PCR
[9] = human serum sample 7, negative for TTV DNA by PCR
[10] = human serum sample 9, positive for TTV DNA by PCR
[11] = human serum sample 11, negative for TTV DNA by PCR
[12] = human serum sample 18, positive for TTV DNA by PCR
[13] = human serum sample 36, positive for TTV DNA by PCR
[14] = human serum sample 48, positive for TTV DNA by PCR
[15] = human serum sample 98, positive for TTV DNA by PCR
[16] = human serum sample 110, positive for TTV DNA by PCR
[17] = human serum sample 155, positive for TTV DNA by PCR
[18] = human serum sample 157, positive for TTV DNA by PCR

Substance	OD at 405 nm, reactivity of human serum sample P4 [1] [OD]	OD at 405 nm, reactivity of human serum sample P7 [1] [OD]	OD at 405 nm, reactivity of human serum sample P36 [1] [OD]	optical density (OD) at 405 nm [2, 3] [OD]	optical density (OD) at 405 nm [2, 4] [OD]	optical density (OD) at 405 nm [2, 5] [OD]	optical density (OD) at 405 nm [2, 6] [OD]	optical density (OD) at 405 nm [2, 7] [OD]	optical density (OD) at 405 nm [2, 8] [OD]	optical density (OD) at 405 nm [2, 9] [OD]	optical density (OD) at 405 nm [2, 10] [OD]	optical density (OD) at 405 nm [2, 11] [OD]	optical density (OD) at 405 nm [2, 12] [OD]	optical density (OD) at 405 nm [2, 13] [OD]	optical density (OD) at 405 nm [2, 14] [OD]	optical density (OD) at 405 nm [2, 15] [OD]	optical density (OD) at 405 nm [2, 16] [OD]	optical density (OD) at 405 nm [2, 17] [OD]	optical density (OD) at 405 nm [2, 18] [OD]	optical density (OD) at 405 nm, EIA reactivity of human serum sample 1 [2] [OD]	also measured
2: overlapping synthetic peptide of TTV ORF1 (YAYPGTNRPPV) [compound 2]	0.647	1.546	0.677	0.08	0.08	0.07	0.11	0.07	0.09	0.08	0.07	0.14	0.06	0.08	0.10	0.05	0.08	0.07	0.08	0.10	optical density (OD) at 405 nm, EIA reactivity of human serum sample 2 [2]: 0.11 OD; optical density (OD) at 405 nm, EIA reactivity of human serum sample 3 [2]: 0.11 OD; optical density (OD) at 405 nm, EIA reactivity of human serum sample 4 [2]: 0.10 OD; optical density (OD) at 405 nm, EIA reactivity of human serum sample 5 [2]: 0.08 OD; optical density (OD) at 405 nm, EIA reactivity of human serum sample 6 [2]: 0.12 OD; optical density (OD) at 405 nm, EIA reactivity of human serum sample 7 [2]: 0.09 OD; optical density (OD) at 405 nm, EIA reactivity of human serum sample 9 [2]: 0.08 OD; optical density (OD) at 405 nm, EIA reactivity of human serum sample 11 [2]: 0.14 OD; optical density (OD) at 405 nm, EIA reactivity of human serum sample 18 [2]: 0.08 OD; optical density (OD) at 405 nm, EIA reactivity of human serum sample 36 [2]: 0.08 OD; optical density (OD) at 405 nm, EIA reactivity of human serum sample 48 [2]: 0.08 OD; optical density (OD) at 405 nm, EIA reactivity of human serum sample 98 [2]: 0.08 OD; optical density (OD) at 405 nm, EIA reactivity of human serum sample 110 [2]: 0.09 OD; optical density (OD) at 405 nm, EIA reactivity of human serum sample 155 [2]: 0.14 OD; optical density (OD) at 405 nm, EIA reactivity of human serum sample 157 [2]: 0.13 OD
20: overlapping synthetic peptide of TTV ORF1 (TATTTTYAYPGTNRPP) [compound 20]	0.096	0.144	0.086	0.07	0.06	0.06	0.07	0.06	0.08	0.08	0.08	0.11	0.07	0.07	0.09	0.04	0.06	0.09	0.10	0.09	optical density (OD) at 405 nm, EIA reactivity of human serum sample 2 [2]: 0.10 OD; optical density (OD) at 405 nm, EIA reactivity of human serum sample 3 [2]: 0.09 OD; optical density (OD) at 405 nm, EIA reactivity of human serum sample 4 [2]: 0.08 OD; optical density (OD) at 405 nm, EIA reactivity of human serum sample 5 [2]: 0.07 OD; optical density (OD) at 405 nm, EIA reactivity of human serum sample 6 [2]: 0.10 OD; optical density (OD) at 405 nm, EIA reactivity of human serum sample 7 [2]: 0.07 OD; optical density (OD) at 405 nm, EIA reactivity of human serum sample 9 [2]: 0.10 OD; optical density (OD) at 405 nm, EIA reactivity of human serum sample 11 [2]: 0.09 OD; optical density (OD) at 405 nm, EIA reactivity of human serum sample 18 [2]: 0.10 OD; optical density (OD) at 405 nm, EIA reactivity of human serum sample 36 [2]: 0.08 OD; optical density (OD) at 405 nm, EIA reactivity of human serum sample 48 [2]: 0.08 OD; optical density (OD) at 405 nm, EIA reactivity of human serum sample 98 [2]: 0.08 OD; optical density (OD) at 405 nm, EIA reactivity of human serum sample 110 [2]: 0.10 OD; optical density (OD) at 405 nm, EIA reactivity of human serum sample 155 [2]: 0.14 OD; optical density (OD) at 405 nm, EIA reactivity of human serum sample 157 [2]: 0.16 OD

Reference: patent publication US20030022158A1, “Peptides from the TT virus sequence and monospecific antibodies binding to the TT virus” (priority 1999, published 2003)
